Reference: ChEMBL document CHEMBL3877300, “Design, synthesis, docking studies and biological evaluation of novel dihydro-1,3,5-triazines as human DHFR inhibitors” (Eur J Med Chem, 2017)

Legend:
Mus musculus [1] = experiment: Toxicity in BALB/c nude mouse xenografted with human A549 cells assessed as body weight at 2 mg/kg, ip administered 14 times in 22 days measured on day 4 post dose (reference value: 24.84 +/- 1.22 g); format: organism-based; conditions: in vivo, 528 h
[2] = Antitumor activity against human A549 cells xenografted in BALB/c nude mouse assessed as tumor volume at 2 mg/kg, ip administered 14 times in 22 days measured on day 4 post dose (reference value: 207.73 +/- 56.48 mm3); format: functional
[3] = Antitumor activity against human A549 cells xenografted in BALB/c nude mouse assessed as tumor growth inhibition at 2 mg/kg, ip administered 14 times in 22 days measured on day 18 post dose relative to control; format: functional; conditions: read-out: TGI
Mus musculus [4] = experiment: Toxicity in BALB/c nude mouse xenografted with human A549 cells assessed as body weight at 2 mg/kg, ip administered 14 times in 22 days measured on day 18 post dose (reference value: 25.66 +/- 1.16 g); format: organism-based; conditions: in vivo, 528 h
cells [5] = conditions: Homo sapiens, HCT-116, 72 h
Description: Antiproliferative activity against human HCT116 cells after 72 hrs by MTT assay

[6] = Antiproliferative activity against human MDA-MB-231 cells after 72 hrs by MTT assay; format: functional, cell-based; conditions: MDA-MB-231, 72 h, read-out: IC50
Mus musculus [7] = experiment: Toxicity in BALB/c nude mouse xenografted with human A549 cells assessed as body weight at 2 mg/kg, ip administered 14 times in 22 days measured on day 15 post dose (reference value: 25.41 +/- 1.04 g); format: organism-based; conditions: in vivo, 528 h
cells [8] = conditions: Homo sapiens, A549, 72 h
Description: Antiproliferative activity against human A549 cells after 72 hrs by MTT assay

[9] = Antitumor activity against human A549 cells xenografted in BALB/c nude mouse assessed as tumor volume at 2 mg/kg, ip administered 14 times in 22 days measured on day 11 post dose (reference value: 373.93 +/- 59.98 mm3); format: functional
Mus musculus [10] = experiment: Toxicity in BALB/c nude mouse xenografted with human A549 cells assessed as body weight at 2 mg/kg, ip administered 14 times in 22 days measured on day 1 post dose (reference value: 24.73 +/- 1.33 g); format: organism-based; conditions: in vivo, 528 h
Mus musculus [11] = experiment: Toxicity in BALB/c nude mouse xenografted with human A549 cells assessed as body weight at 2 mg/kg, ip administered 14 times in 22 days measured on day 11 post dose (reference value: 24.99 +/- 0.97 g); format: organism-based; conditions: in vivo, 528 h
[12] = Antiproliferative activity against human HepG2 cells after 72 hrs by MTT assay; format: functional, cell-based; conditions: HepG2, 72 h
[13] = Antitumor activity against human A549 cells xenografted in BALB/c nude mouse assessed as tumor growth inhibition at 2 mg/kg, ip administered 14 times in 22 days measured on day 22 post dose relative to control; format: functional; conditions: 528 h, read-out: TGI
[14] = Antitumor activity against human A549 cells xenografted in BALB/c nude mouse assessed as tumor volume at 2 mg/kg, ip administered 14 times in 22 days measured on day 1 post dose (reference value: 117.71 +/- 7.29 mm3); format: functional
Mus musculus [15] = experiment: Toxicity in BALB/c nude mouse xenografted with human A549 cells assessed as body weight at 2 mg/kg, ip administered 14 times in 22 days measured on day 8 post dose (reference value: 25.19 +/- 1.38 g); format: organism-based; conditions: in vivo, 528 h
Mus musculus [16] = experiment: Toxicity in BALB/c nude mouse xenografted with human A549 cells assessed as body weight at 2 mg/kg, ip administered 14 times in 22 days measured on day 22 post dose (reference value: 25.59 +/- 1.16 g); format: organism-based; conditions: in vivo, 528 h
[17] = Antitumor activity against human A549 cells xenografted in BALB/c nude mouse assessed as tumor growth inhibition at 2 mg/kg, ip administered 14 times in 22 days measured on day 11 post dose relative to control; format: functional; conditions: read-out: TGI
[18] = Antitumor activity against human A549 cells xenografted in BALB/c nude mouse assessed as tumor growth inhibition at 2 mg/kg, ip administered 14 times in 22 days measured on day 15 post dose relative to control; format: functional; conditions: read-out: TGI
[19] = Antitumor activity against human A549 cells xenografted in BALB/c nude mouse assessed as tumor growth inhibition at 2 mg/kg, ip administered 14 times in 22 days measured on day 4 post dose relative to control; format: functional; conditions: read-out: TGI
[20] = Antitumor activity against human A549 cells xenografted in BALB/c nude mouse assessed as tumor volume at 2 mg/kg, ip administered 14 times in 22 days measured on day 15 post dose (reference value: 502.27 +/- 69.26 mm3); format: functional
[21] = Antitumor activity against human A549 cells xenografted in BALB/c nude mouse assessed as tumor growth inhibition at 2 mg/kg, ip administered 14 times in 22 days measured on day 8 post dose relative to control; format: functional; conditions: read-out: TGI
[22] = Antitumor activity against human A549 cells xenografted in BALB/c nude mouse assessed as tumor volume at 2 mg/kg, ip administered 14 times in 22 days measured on day 22 post dose (reference value: 912.28 +/- 140.04 mm3); format: functional
[23] = Antiproliferative activity against human HL60 cells after 72 hrs by MTT assay; format: functional, cell-based; conditions: HL-60, 72 h
[24] = Antitumor activity against human A549 cells xenografted in BALB/c nude mouse assessed as tumor volume at 2 mg/kg, ip administered 14 times in 22 days measured on day 8 post dose (reference value: 288.71 +/- 54.75 mm3); format: functional

In the case of `CN(Cc1cnc2nc(N)nc(N)c2n1)c1ccc(C(=O)N[C@@H](CCC(=O)O)C(=O)O)cc1` [METHOTREXATE], the Activity (Mus musculus [1]) is reported as 25.47 g, the Activity [2] is reported as 153.09 mm3 and the inhibition in vivo at 2 mg/kg [3] is reported as 50.6%. It also gave an Activity (Mus musculus [4]) of 21.62 g, an IC50 (cells [5]) of 750 nM and an IC50 [6] of 9490 nM. For the same compound, the Activity (Mus musculus [7]) was 21.85 g, the IC50 (cells [8]) was 250 nM and the Activity [9] was 223.6 mm3. For the same compound, the Activity (Mus musculus [10]) was 25.28 g, the Activity (Mus musculus [11]) was 23.98 g and the IC50 [12] was 410 nM. The inhibition in vivo at 2 mg/kg [13] was 50.8%, the Activity [14] was 115.14 mm3 and the Activity (Mus musculus [15]) was 24.88 g. The Activity (Mus musculus [16]) was 21.4 g, the inhibition in vivo at 2 mg/kg [17] was 29.2% and the inhibition in vivo at 2 mg/kg [18] was 45%. The inhibition in vivo at 2 mg/kg [19] was 24.6%, the Activity [20] was 271.71 mm3 and the inhibition in vivo at 2 mg/kg [21] was 32.7%. The Activity [22] was 440.75 mm3, the IC50 [23] was 1090 nM and the Activity [24] was 189.83 mm3.
